pIC50: −log10 of the molar value. Where a name gives a salt, the structure may show the parent alone.
How the values were obtained:
NIH3T3 = assay: MTT cytotoxicity assay in NIH3T3 fibroblasts; type: cell-based, mouse
Vero = assay: Cytotoxicity in Vero kidney epithelial cells; type: cell-based, monkey
Procedure: To consider a molecule as a candidate compound in cancer drug therapy, the test compound must have specific cytotoxicity towards the cancer cells without affecting normal cell growth. Therefore, all active compounds were assessed for toxicity in non-cancer cell-lines: mouse fibroblast cell line (NIH3T3) and monkey kidney epithelial cells (Vero). […] Therefore, based on safety index ([…]), 5d [Centans; based on IUPAC name prefixed with Central Drug Research Institute's signature (Cent)] was selected as a lead compound.

[1] = test system: PBMCs from patients with BCR-ABL T315I mutation; assay: MTT cytotoxicity in PBMCs from CML patient with T315I BCR-ABL mutation; type: cell-based, human; conditions: 5 μM, 48 h
MCF-7 = assay: MTT assay in MCF-7 breast tumor cells; type: cell-based; conditions: Homo sapiens, MCF7, Table 6, 48 h, 10 point dose response
MDA-MB231 = assay: MTT assay in MDA-MB-231 breast tumor cells; type: cell-based; conditions: Homo sapiens, MDA-MB-231, Table 6, 48 h, 10 point dose response
Ishikawa = assay: MTT assay in Ishikawa endometrial adenocarcinoma cells; type: cell-based; conditions: Homo sapiens, Ishikawa, Table 6, 48 h, 10 point dose response
HEK-293 = assay: MTT assay in non-cancer HEK-293 cells; type: cell-based
SW620 = assay: Sulphorhodamine B assay in SW620 colon cancer cells; type: cell-based; conditions: Homo sapiens, SW-620; SRB assay
DLD1 = assay: Sulphorhodamine B assay in DLD1 colon cancer cells; type: cell-based; conditions: Homo sapiens, DLD-1; SRB assay
HCT116 = assay: Sulphorhodamine B assay in HCT116 colon cancer cells; type: cell-based; conditions: Homo sapiens, HCT-116; SRB assay
Colo205 = assay: Sulphorhodamine B assay in Colo205 colon cancer cells; type: cell-based; conditions: Homo sapiens, COLO 205; SRB assay
EGFR = biological target: T1, EGFR (Homo sapiens, UniProt P00533); assay: EGF dependent EGFR phosphorylation ELISA in MCF-7 cells; type: cell-based; conditions: EGF stimulated, Tyr1068, ELISA, read-out: IC50 in terms of EGFR phosphorylation
T1 construct: Serum starved (A,C) MCF-7 cells and (B,D) MDA-MB231 cells were pre-incubated for 1 h; endogenous in cells; host or cells: MCF-7
T1 sequence (P00533 25-1210): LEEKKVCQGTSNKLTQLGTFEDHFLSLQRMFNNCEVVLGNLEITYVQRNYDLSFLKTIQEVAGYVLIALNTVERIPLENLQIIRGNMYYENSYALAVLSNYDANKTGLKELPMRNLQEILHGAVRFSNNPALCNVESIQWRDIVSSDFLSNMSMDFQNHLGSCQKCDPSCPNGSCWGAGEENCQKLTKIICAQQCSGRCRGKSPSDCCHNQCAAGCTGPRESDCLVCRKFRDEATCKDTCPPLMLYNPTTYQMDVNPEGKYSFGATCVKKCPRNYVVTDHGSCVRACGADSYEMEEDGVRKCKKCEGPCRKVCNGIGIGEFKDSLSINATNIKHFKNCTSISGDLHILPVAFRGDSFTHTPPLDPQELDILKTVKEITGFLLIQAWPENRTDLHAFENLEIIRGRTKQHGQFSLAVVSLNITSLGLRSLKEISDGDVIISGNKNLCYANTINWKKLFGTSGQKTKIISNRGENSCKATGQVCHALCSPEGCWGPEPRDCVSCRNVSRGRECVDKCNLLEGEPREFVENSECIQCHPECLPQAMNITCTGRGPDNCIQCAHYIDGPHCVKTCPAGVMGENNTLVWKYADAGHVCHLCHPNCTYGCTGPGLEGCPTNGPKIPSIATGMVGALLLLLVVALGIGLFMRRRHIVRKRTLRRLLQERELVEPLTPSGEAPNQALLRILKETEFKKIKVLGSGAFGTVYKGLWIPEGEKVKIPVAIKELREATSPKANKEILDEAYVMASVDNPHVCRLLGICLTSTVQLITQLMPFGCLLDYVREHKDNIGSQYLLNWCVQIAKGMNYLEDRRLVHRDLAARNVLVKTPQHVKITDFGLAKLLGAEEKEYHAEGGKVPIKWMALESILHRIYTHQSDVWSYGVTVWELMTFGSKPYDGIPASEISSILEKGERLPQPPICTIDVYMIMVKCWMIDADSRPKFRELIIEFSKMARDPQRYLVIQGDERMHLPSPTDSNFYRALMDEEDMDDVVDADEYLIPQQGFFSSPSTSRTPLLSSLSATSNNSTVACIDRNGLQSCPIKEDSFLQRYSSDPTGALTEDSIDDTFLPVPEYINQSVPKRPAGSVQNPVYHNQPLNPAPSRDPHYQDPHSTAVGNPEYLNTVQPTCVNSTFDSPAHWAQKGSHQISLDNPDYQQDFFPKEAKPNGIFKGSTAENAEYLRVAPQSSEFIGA
Procedure: Since EGFR and Her2 play major roles in breast cancer development and metastatis, the effect of Centans on regulation of these two factors was evaluated in MCF-7 and MDA-MB-231 cells by enzyme-linked immunosorbant assays (ELISA). As depicted in FIGS. 7. A and B, EGF dependent EGFR phosphorylation at Tyr^1068 was strongly attenuated by Centans in both MCF-7 and MDA-MB-231 cells and this effect was much stronger than that of Gefitinib (marketted EGFR inhibitor/anti-cancer drug).
FIG. 7. Inhibition of EGFR and Her2 phosphorylation by Centans in MCF-7 and MDA-MB231 cells. Serum starved (A,C) MCF-7 cells and (B,D) MDA-MB231 cells were pre-incubated for 1 h with the indicated concentrations of Centans prior to stimulation with EGF for 15 min and EGFR (A and B) or Her2 (C and D) phosphorylation were measured by ELISA. Gef=Gefitinib. All doses are in μM.

MCF-7 xenograft tumor = MCF-7 xenograft tumor in nude mice; type: in vivo, mouse; conditions: 16 mg·kg−1·day−1
Text: The effect of Centans on the growth of MCF-7 xenograft tumor was studied. […] Beyond 25 d, vehicle treated mice bearing tumors (control) show significant mortality (data not shown).
Tumors from mice treated with Centans presented with large areas of stroma where deletion of epithelial cells had occurred as evident from few mitotic figures (FIG. 8B).
FIG. 8 Regression of xenograft tumor by Centans in athymic nude mice. (A) Increase in relative tumor volume over time in various treatment groups indicated. N=10 mice/group; data represent mean±S.E.M. *P<0.05 and **P<0.01 compared to vehicle (carboxymethyl cellulose). (B) Effect of Centans treatment on tumor morphology. Representative tumor sections from mice treated with vehicle or Centans (16 mg·kg^−1·day^−1) for 25 days. (C) Effect of Centans treatment on PCNA levels were analyzed by Western blotting from in tumors of vehicle or Centans treated mice. Data represent mean±S.E.M. **P<0.01 compared to vehicle-treated control.

[2] = test system: CD133+ DLD1 colon cancer cells; assay: CD133+ colon cancer stem cell population by flow cytometry; type: cell-based; conditions: 20 uM, 24 h, vehicle 15.30%
Procedure: FIG. 9. Centans reduces CD133+ colon cancer stem cells with a higher efficacy than salinomycin. DLD1 colon cancer cells were treated with indicated compounds for 24h following which the CD133+ population was assessed by flow cytometry using CD133 antibody or relevant isotype control antibody (BD biosciences) in a Becton Dickinson FACS Calibur. Numbers in the dot plot represent % CD133+ cells.

SRC = SRC (Homo sapiens, UniProt P12931); assay: SRC phosphorylation by immunoblotting in K562 cells; conditions: 0.5 μM, 1 μM Centans or 1 μM Imatinib, 48 h, western blot
Chain of SRC (P12931 whole entry): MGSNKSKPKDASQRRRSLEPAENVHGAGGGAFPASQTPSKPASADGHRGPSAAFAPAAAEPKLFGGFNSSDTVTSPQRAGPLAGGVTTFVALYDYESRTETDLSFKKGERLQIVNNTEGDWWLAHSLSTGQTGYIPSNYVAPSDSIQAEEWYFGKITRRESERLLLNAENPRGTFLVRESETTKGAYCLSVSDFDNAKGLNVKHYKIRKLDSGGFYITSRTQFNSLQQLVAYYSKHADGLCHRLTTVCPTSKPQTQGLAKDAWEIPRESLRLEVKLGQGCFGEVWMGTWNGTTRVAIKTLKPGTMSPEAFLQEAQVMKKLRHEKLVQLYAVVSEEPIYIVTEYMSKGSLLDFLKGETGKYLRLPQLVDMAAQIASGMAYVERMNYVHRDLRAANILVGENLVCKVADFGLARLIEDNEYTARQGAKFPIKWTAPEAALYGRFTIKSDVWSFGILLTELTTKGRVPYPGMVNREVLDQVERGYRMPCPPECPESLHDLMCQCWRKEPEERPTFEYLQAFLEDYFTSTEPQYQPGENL

CCN(CC)CCO/N=C(/c1ccc(SC)cc1)c1cccc2ccccc12 [Compound 5d, (4-(methylthio)phenyl)(naphthalen-1-yl)methanone O-2-(diethylamino)ethyl oxime oxalate]
pIC50 (NIH3T3; Mus musculus, NIH3T3, Table 2, normal cell line): < 4.70 | pIC50 (NIH3T3; Table 1, MTT assay after 48 h treatment, oxalate): < 4.70 | cytotoxicity in non-cancer cell-line Vero (Vero; MTT assay, solid tumor evaluation): not in non-cancer cell-lines Vero and HEK-293 | pIC50 (Vero; Primates, Vero, Table 2, normal cell line): < 4.60 | % cell death [1]: 34.60% | pIC50 (MCF-7): 5.12 | pIC50 (MDA-MB231): 5.14 | pIC50 (Ishikawa): 4.92 | cytotoxicity in non-cancer cell-line HEK-293 (HEK-293): not in non-cancer cell-lines Vero and HEK-293 | pIC50 (SW620): 5.06 | pIC50 (DLD1): 4.81 | pIC50 (HCT116): 5.11 | pIC50 (Colo205): 5.38 | pIC50 (EGFR): 7.83 | reduction in relative tumor volume compared to vehicle treated mice (MCF-7 xenograft tumor; days 21 and 25 after inoculation): ~50% | PCNA levels in tumors (MCF-7 xenograft tumor; western blotting): significant reduction in the levels of PCNA | CD133+ population after treatment (minus isotype control) [2]: 2.94% | SRC dephosphorylation (SRC): dephosphorylating SRC-1 in a dose dependent manner
